Experimental data as given in US11384078B2, “5,6-fused-bicyclic compounds and compositions for the treatment of parasitic diseases” (NOVARTIS AG, priority 2017, dated 2022).
pEC50: −log10 of the molar value.

What was measured:
Format in all cases: cell-based
[1] = test system: Leishmania donovani axenic amastigote; experiment: In vitro assay for growth inhibition of Leishmania donovani axenic amastigote (Cell TiterGlo luminescence); details: Leishmania donovani, L. donovani axenic amastigotes in vitro; read-out: L. donovani amastigotes EC50
Summary of the method: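 Compound-treated wells received 9600 axenic amastigotes in RPMI 1640-based medium at pH 5.5 (37 °C, 5% CO2). Growth measured as ATP luminescence (CellTiter-Glo) after 2-day incubation; DMSO and reference compounds served as controls.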

[2] = test system: L. donovani HU3 strain in mouse peritoneal macrophages; experiment: Assay for inhibition of parasitemia of Leishmania donovani in mouse macrophages (SYBR Green nuclei count, high-content imaging); details: Leishmania donovani, Peritoneal macrophage, L. donovani in mouse peritoneal macrophages; read-out: L. donovani in Mouse Macrophages EC50
Summary of the method: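 Parasite numbers were counted from SYBR Green-stained nuclei imaged by high-content microscopy after paraformaldehyde fixation and Triton permeabilization. Before this, compound was applied for 5 days at 37° C to BALB/c peritoneal macrophages (2×10^4/well) that had been exposed 24 h to 4×10^5 L. donovani HU3 amastigotes harvested from infected mouse spleens.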

[3] = test system: Trypanosoma cruzi amastigotes cultured in 3T3 fibroblast cells; experiment: Assay for growth inhibition of kinetoplastid parasite Trypanosoma cruzi (beta-galactosidase Tulahuen strain, CPRG readout); details: Trypanosoma cruzi, Fibroblast, T. cruzi amastigotes in 3T3 fibroblast cells; read-out: Buckner infectious T. cruzi EC50
Summary of the method: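 3T3 fibroblasts (1,000 cells/well) plated overnight, treated with compound in DMSO, then infected with 10,000 Lac-Z-expressing Tulahuen trypomastigotes. After 6 days, 0.6 mM CPRG with 0.6% NP-40 added for 2 h at room temperature; absorbance gives relative intracellular amastigote numbers. Benznidazole and nifurtimox serve as positive controls.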

[4] = test system: Trypanosoma brucei brucei (Lister 427) strain; experiment: Assay for growth inhibition against Trypanosoma brucei brucei (Cell TiterGlo ATP luminescence); details: Trypanosoma brucei, T. brucei brucei (Lister 427); read-out: T. Brucei (HAT) EC50
Summary of the method: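 Growth read-out is cellular ATP by CellTiter-Glo luminescence, measured 30 min after reagent addition, following 2-day incubation at 37 °C in CO2. Parasites (10,000/mL, HMI-9 plus 10% FBS and 10% serum plus) faced 10 threefold dilutions in duplicate; IC50 taken as 50% growth inhibition versus untreated.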

Cc1nc(C)c(C(=O)Nc2ccc(F)c(-n3cc4cc(CC5CCC5)cnc4n3)c2)o1 [Compound 106, N-{3-[5-(cyclobutylmethyl)-2H-pyrazolo[3,4-b]pyridin-2-yl]-4-fluorophenyl}-2,4-dimethyl-1,3-oxazole-5-carboxamide]
pEC50 [1]: 6.89 | pEC50 [2]: 7.07 | pEC50 [3]: 7.21 | pEC50 [4]: < 4.30

CC(C)c1cnc2nn(-c3cc(NC(=O)C4(C(F)(F)F)CC4)ccc3F)cc2c1 [Compound 209, N-{4-fluoro-3-[5-(propan-2-yl)-2H-pyrazolo[3,4-b]pyridin-2-yl]phenyl}-1-(trifluoromethyl)cyclopropane-1-carboxamide]
pEC50 [1]: 4.60 | pEC50 [2]: 6.42 | pEC50 [3]: 5.29 | pEC50 [4]: 5.18

O=C(Nc1ccnc(-n2cc3cc(Br)cnc3n2)c1)N1CC[C@@H](F)C1 [Compound 340, (3R)-N-(2-{5-bromo-2H-pyrazolo[3,4-b]pyridin-2-yl}pyridin-4-yl)-3-fluoropyrrolidine-1-carboxamide]
pEC50 [1]: 6.65 | pEC50 [2]: 7.06 | pEC50 [3]: 7.21 | pEC50 [4]: 7.46

CC(C)c1cnc2nn(-c3cc(NC(=O)c4ccccn4)ccc3F)cc2c1 [Compound 82, N-{4-fluoro-3-[5-(propan-2-yl)-2H-pyrazolo[3,4-b]pyridin-2-yl]phenyl}pyridine-2-carboxamide]
pEC50 [1]: 6.33 | pEC50 [2]: 6.51 | pEC50 [3]: 7.23 | pEC50 [4]: 7.27

Cc1cn(-c2cnc3nn(-c4cc(NC(=O)N5CC(F)C5)ccc4F)cc3c2)cn1 [Compound 328, 3-fluoro-N-{4-fluoro-3-[5-(4-methyl-1H-imidazol-1-yl)-2H-pyrazolo[3,4-b]pyridin-2-yl]phenyl}azetidine-1-carboxamide]
pEC50 [1]: 7.64 | pEC50 [2]: 6.80 | pEC50 [3]: 7.08 | pEC50 [4]: 7.77

CC(C)(C)Cc1cnc2nn(-c3cc(NC(=O)N4CC(F)(F)C4)ccc3F)cc2c1 [Compound 32, N-{3-[5-(2,2-dimethylpropyl)-2H-pyrazolo[3,4-b]pyridin-2-yl]-4-fluorophenyl}-3,3-difluoroazetidine-1-carboxamide]
pEC50 [1]: 7.92 | pEC50 [2]: 7.89 | pEC50 [3]: 8.30 | pEC50 [4]: > 7.64

[2H]C([2H])([2H])N(c1cnc2nn(-c3cc(NC(=O)N4CCC4)ccc3F)cc2c1)C([2H])([2H])[2H] [Compound 306, N-(3-{5-[bis(^2H3)methylamino]-2H-pyrazolo[3,4-b]pyridin-2-yl}-4-fluorophenyl)azetidine-1-carboxamide]
pEC50 [1]: 7.05 | pEC50 [2]: 8.40 | pEC50 [3]: 8.70 | pEC50 [4]: 8.30

O=C(Nc1ccc(F)c(-n2cc3cc(N4CC(C(F)(F)F)C4)cnc3n2)c1)N1CCC1 [Compound 274]
pEC50 [1]: 8.70 | pEC50 [2]: 8.52 | pEC50 [3]: 9.00 | pEC50 [4]: 9.00

Cc1cccnc1-c1cnc2nn(-c3cc(NC(=O)c4ccco4)ccc3F)cc2c1 [Compound 2, N-(4-fluoro-3-(5-(3-methylpyridin-2-yl)-2H-pyrazolo[3,4-b]pyridin-2-yl)phenyl)furan-2-carboxamide]
pEC50 [1]: 8.52 | pEC50 [2]: 8.36 | pEC50 [3]: 9.00 | pEC50 [4]: > 7.64

COC1CN(c2cnc3nn(-c4cc(NC(=O)N5CC(F)C5)ccc4F)cc3c2)C1 [Compound 205, 3-fluoro-N-{4-fluoro-3-[5-(3-methoxyazetidin-1-yl)-2H-pyrazolo[3,4-b]pyridin-2-yl]phenyl}azetidine-1-carboxamide]
pEC50 [1]: 6.71 | pEC50 [2]: 7.96 | pEC50 [3]: 7.82 | pEC50 [4]: 8.30

CC(C)c1cnc2nn(-c3cc(NC(=O)c4cnccn4)ccc3F)cc2c1 [Compound 87, N-(4-fluoro-3-(5-isopropyl-2H-pyrazolo[3,4-b]pyridin-2-yl)phenyl)pyrazine-2-carboxamide]
pEC50 [1]: 7.21 | pEC50 [2]: 7.15 | pEC50 [3]: 7.80 | pEC50 [4]: > 7.64

Cc1cnc2nn(-c3cc(NC(=O)N4CC(F)C4)ccc3F)cc2c1 [Compound 318, 3-fluoro-N-(4-fluoro-3-{5-methyl-2H-pyrazolo[3,4-b]pyridin-2-yl}phenyl)azetidine-1-carboxamide]
pEC50 [1]: 7.57 | pEC50 [2]: 7.49 | pEC50 [3]: 7.89 | pEC50 [4]: 7.82

CC(C)c1cnc2nn(-c3cc(NC(=O)c4ccc(C#N)cn4)ccc3F)cc2c1 [Compound 84, 5-cyano-N-{4-fluoro-3-[5-(propan-2-yl)-2H-pyrazolo[3,4-b]pyridin-2-yl]phenyl}pyridine-2-carboxamide]
pEC50 [1]: 5.62 | pEC50 [2]: 5.16 | pEC50 [3]: 5.43 | pEC50 [4]: 5.69
